Reference: ChEMBL document CHEMBL5543174, “A Nonbactericidal Anionic Antimicrobial Peptide Provides Prophylactic and Therapeutic Efficacies against Bacterial Infections in Mice by Immunomodulatory-Antithrombotic Duality” (J Med Chem, 2024)
Active and inactive are the calls of the source. The rule behind the calls is not given here.

Experiments:
[1] = test system: Staphylococcus aureus; assay: Antimicrobial activity against Staphylococcus aureus ATCC 25923 assessed as reduction in microbial colony forming unit at 200 ug/ml incubated for 1 to 4 hrs by time-kill kinetics based analysis; assay type: functional, organism-based; details: dose 200.0 µg/ml, time 1-4 hrs
[2] = test system: Staphylococcus aureus; assay: Antibacterial activity against Methicillin-resistant Staphylococcus aureus infected in C57BL/6 mouse assessed as reduction in IL-1beta level in serum at 10 mg/kg,ip administrated 5 hrs after bacterial infection measured after 24 hrs by ELISA; assay type: functional, organism-based; details: time 19.0 hrs
[3] = test system: Escherichia coli; assay: Antibacterial activity against Carbapenem-resistant Escherichia coli infected in C57BL/6 mouse assessed as reduction in IL-1beta level in peritoneal fluid at 10 mg/kg,ip administrated 5 hrs after bacterial infection measured after 24 hrs by ELISA; assay type: functional, organism-based; details: time 19.0 hrs
[4] = test system: Escherichia coli; assay: Antibacterial activity against Carbapenem-resistant Escherichia coli infected in C57BL/6 mouse assessed as reduction in bacterial load at 10 mg/kg,ip pre-administrated 5 hrs before bacterial infection; assay type: functional, organism-based
[5] = test system: Mus musculus; assay: Anticoagulation activity in mouse infected with Carbapenem-resistant Escherichia coli assessed as increase in plasma APC expression at 10 mg/kg,ip pre-administrated 5 hrs before bacterial infection measured after 24 hrs by ELISA; assay type: functional, organism-based; details: time 29.0 hrs
[6] = test system: Mus musculus; assay: Antithrombotic activity in BALB/c mouse dorsal skin defect model assessed as increase in skin bleeding time at 10 mg/kg,SC administration; assay type: functional, organism-based
[7] = test system: Escherichia coli; assay: Antibacterial activity against Carbapenem-resistant Escherichia coli infected in C57BL/6 mouse assessed as reduction in TNF-alpha level in peritoneal fluid at 10 mg/kg,ip pre-administrated 5 hrs before bacterial infection measured after 24 hrs by ELISA; assay type: functional, organism-based; details: time 29.0 hrs
[8] = test system: Escherichia coli; assay: Antibacterial activity against Carbapenem-resistant Escherichia coli infected in C57BL/6 mouse with cyclophosphamide-induced neutrophil depletion model assessed as decrease in bacterial burden in peritoneal cavity at 10 mg/kg,ip administrated 5 hrs after bacterial infection measured after 24 hrs; assay type: functional, organism-based; details: time 19.0 hrs
[9] = test system: Mus musculus; assay: Anticoagulation activity in mouse assessed as change in plasma AT-III expression at 10 mg/kg,ip measured after 24 hrs by ELISA; assay type: functional, organism-based
[10] = test system: Staphylococcus aureus; assay: Antibacterial activity against Staphylococcus aureus ATCC 25923 infected in C57BL/6 mouse assessed as reduction in IL-6 level in serum at 10 mg/kg,ip administrated 5 hrs after bacterial infection measured after 24 hrs by ELISA; assay type: functional, organism-based; details: time 19.0 hrs
[11] = test system: Peritoneal macrophage; assay: Induction of chemotaxis in mouse Peritoneal macrophage assessed as upregulation of CXCL1 expression incubated for 6 hrs by ELISA; assay type: functional, cell-based
[12] = test system: Candida albicans; assay: Antimicrobial activity against Candida albicans ATCC 2002 assessed as reduction in metabolic activity at < 200 ug/ml incubated for 1 to 4 hrs by CCK-8 assay; assay type: functional, organism-based; details: dose < 200.0 µg/ml, time 1-4 hrs
[13] = test system: Staphylococcus aureus; assay: Antibacterial activity against Methicillin-resistant Staphylococcus aureus infected in C57BL/6 mouse assessed as increase in survival rate at 10 mg/kg,ip administrated 5 hrs after bacterial infection measured after 7 days; assay type: functional, organism-based; details: time 7.0 day
[14] = test system: Mus musculus; assay: Immunomodulatory activity in clodronate liposome immunosuppressed C57BL/6 mouse with neutrophil depletion model assessed as change in B-lymphocytes in peritoneal lavage at 10 mg/kg,ip administration measured after 5 to 24 hrs by flow cytometry; assay type: functional, organism-based; details: time 5-24 hrs
[15] = test system: Escherichia coli; assay: Antibacterial activity against Carbapenem-resistant Escherichia coli infected in C57BL/6 mouse assessed as reduction in IL-1beta level in serum at 10 mg/kg,ip administrated 5 hrs after bacterial infection measured after 24 hrs by ELISA; assay type: functional, organism-based; details: time 19.0 hrs
[16] = test system: Peritoneal macrophage cell; assay: Induction of chemotaxis in mouse Peritoneal macrophage assessed as increase in macrophage migration at 100 ug/ml preincubated with WRW4 for 30 mins followed by compound addition measured after 8 hrs by crystal violet staining based indirect transwell assay; assay type: functional, cell-based; details: dose 100.0 µg/ml
[17] = test system: Escherichia coli; assay: Antibacterial activity against Escherichia coli ATCC 25922 infected in C57BL/6 mouse assessed as reduction in IL-6 level in serum at 10 mg/kg,ip pre-administrated 5 hrs before bacterial infection measured after 24 hrs by ELISA; assay type: functional, organism-based; details: time 29.0 hrs
[18] = test system: Mus musculus; assay: Antithrombotic activity in carrageenan-induced tail thrombosis BALB/c mouse model assessed as reduction in thrombus length at 10 mg/kg,ip administration measured for 6 to 48 hrs; assay type: functional, organism-based; details: time 6-48 hrs
[19] = test system: Peritoneal macrophage; assay: Immunomodulatory activity in mouse Peritoneal macrophage assessed as decrease in LPS-induced IL-1beta production at 25 to 100 ug/ml incubated for 6 hrs by ELISA; assay type: functional, cell-based; details: dose 25-100 µg/ml
[20] = test system: Mus musculus; assay: Anticoagulation activity in mouse infected with Carbapenem-resistant Escherichia coli assessed as increase in plasma APC expression at 10 mg/kg,ip administrated 5 hrs after bacterial infection measured after 24 hrs by ELISA; assay type: functional, organism-based; details: time 19.0 hrs
[21] = test system: Escherichia coli; assay: Antimicrobial activity against Carbapenem-resistant Escherichia coli assessed as reduction in microbial colony forming unit at 200 ug/ml incubated for 1 to 4 hrs by time-kill kinetics based analysis; assay type: functional, organism-based; details: dose 200.0 µg/ml, time 1-4 hrs
[22] = test system: Staphylococcus aureus; assay: Antibacterial activity against Staphylococcus aureus ATCC 25923 infected in C57BL/6 mouse assessed as increase in survival rate at 10 mg/kg,ip administrated 5 hrs after bacterial infection measured after 7 days; assay type: functional, organism-based; details: time 7.0 day
[23] = test system: Escherichia coli; assay: Antibacterial activity against Carbapenem-resistant Escherichia coli infected in C57BL/6 mouse assessed as reduction in IL-6 level in peritoneal fluid at 10 mg/kg,ip pre-administrated 5 hrs before bacterial infection measured after 24 hrs by ELISA; assay type: functional, organism-based; details: time 29.0 hrs
[24] = test system: Escherichia coli; assay: Antibacterial activity against Carbapenem-resistant Escherichia coli infected in C57BL/6 mouse assessed as reduction in IL-1beta level in serum at 10 mg/kg,ip pre-administrated 5 hrs before bacterial infection measured after 24 hrs by ELISA; assay type: functional, organism-based; details: time 29.0 hrs
[25] = test system: Neutrophil; assay: Induction of immune response in mouse bone marrow derived neutrophil assessed as neutrophil extracellular trap formation at 100 ug/ml incubated for 4 hrs by DAPI staining based fluorescence microscopic analysis; assay type: functional, cell-based; details: dose 100.0 µg/ml
[26] = test system: Escherichia coli; assay: Antibacterial activity against Escherichia coli ATCC 25922 infected in C57BL/6 mouse assessed as reduction in TNF-alpha level in serum at 10 mg/kg,ip administrated 5 hrs after bacterial infection measured after 24 hrs by ELISA; assay type: functional, organism-based; details: time 19.0 hrs
[27] = test system: Peritoneal macrophage; assay: Induction of chemotaxis in mouse Peritoneal macrophage assessed as increase in macrophage migration incubated for 8 hrs by crystal violet staining based indirect transwell assay; assay type: functional, cell-based
[28] = test system: Morganella morganii; assay: Antimicrobial activity against Morganella morganii ATCC25830 assessed as inhibition of microbial growth at <= 200 ug/ml incubated for 18 hrs by micro-broth dilution method; assay type: functional, organism-based; details: dose <= 200.0 µg/ml
[29] = test system: Peritoneal macrophage cell; assay: Induction of chemotaxis in mouse Peritoneal macrophage assessed as upregulation of MCP-1 production at 100 ug/ml preincubated with WRW4 followed by compound addition by ELISA; assay type: functional, cell-based; details: dose 100.0 µg/ml
[30] = test system: Mus musculus; assay: Immunomodulatory activity in cyclophosphamide immunosuppressed C57BL/6 mouse with neutrophil depletion model assessed as increase in number of neutrophil in peritoneal lavage at 10 mg/kg,ip administration measured after 5 hrs by flow cytometry; assay type: functional, organism-based
[31] = test system: Staphylococcus aureus; assay: Antibacterial activity against Methicillin-resistant Staphylococcus aureus infected in C57BL/6 mouse assessed as reduction in TNF-alpha level in peritoneal fluid at 10 mg/kg,ip pre-administrated 5 hrs before bacterial infection measured after 24 hrs by ELISA; assay type: functional, organism-based; details: time 29.0 hrs

In the case of `CC[C@H](C)[C@H](NC(=O)[C@@H]1CSSC[C@H](NC(=O)[C@H](CCC(=O)O)NC(=O)[C@@H](NC(=O)[C@H](CCCCN)NC(=O)[C@H](Cc2c[nH]cn2)NC(=O)[C@@H](NC(=O)[C@H](CCCCN)NC(=O)[C@H](CCC(=O)O)NC(=O)[C@H](C)NC(=O)[C@H](CCC(=O)O)NC(=O)[C@H](CCC(=O)O)NC(=O)[C@H](CCC(=O)O)NC(=O)[C@H](C)N)[C@@H](C)O)[C@@H](C)O)C(=O)N[C@@H](CC(C)C)C(=O)N[C@@H](CCC(=O)O)C(=O)N1)C(=O)N[C@@H](Cc1ccccc1)C(=O)N[C@H](C(=O)N[C@@H](CC(C)C)C(=O)N[C@@H](CC(C)C)C(=O)N1CCC[C@H]1C(=O)N1CCC[C@@H]1C(=O)N[C@H](C)C(=O)O)[C@@H](C)O`, the Activity [1] is reported as “inactive”, the Activity [2] is reported as “Active” and the Activity [3] is reported as “Active”. The Activity [4] was “Active”, the Activity [5] was “Active” and the Activity [6] was “inactive”. For the same molecule, the Activity [7] was “Active”, the Activity [8] was “inactive” and the Activity [9] was “inactive”. For the same molecule, the Activity [10] was “Active”, the Activity [11] was “Dose-Dependent Effect” and the Activity [12] was “inactive”. The Activity [13] was “Active”, the Activity [14] was “inactive” and the Activity [15] was “Active”. For the same molecule, the Activity [16] was “Active”, the Activity [17] was “Active” and the Activity [18] was “Active”. The Activity [19] was “inactive”, the Activity [20] was “Active” and the Activity [21] was “inactive”. For the same molecule, the Activity [22] was “Active”, the Activity [23] was “Active” and the Activity [24] was “Active”. For the same molecule, the Activity [25] was “Active”, the Activity [26] was “Active” and the Activity [27] was “Dose-Dependent Effect”. For the same molecule, the Activity [28] was “inactive”, the Activity [29] was “Active” and the Activity [30] was “Active”. For the same molecule, the Activity [31] was “Active”.
